Values quoted from earlier work in patent publication US6004969A (National Science Council, priority 1997, dated 1999).

Columns and labels:
[1] = oral administration; words
[2] = tested on: animal paw swelling; settings: topical use; words

Compound | first pass effect [1] | gastrointestinal absorption [1] | inhibition of animal paw swelling [2]
CO[C@]12CC[C@@]3(C[C@@H]1[C@](C)(O)C(C)(C)C)[C@H]1Cc4ccc(O)c5c4[C@@]3(CCN1CC1CC1)[C@H]2O5 [Buprenorphine, 21-cyclo-propylmethyl-7-α-[(S)-1-hydroxy-1,2,2-trimethylpropyl]-6,14-endoethano-6,7,8,14-tetrahydroripavine] | high first pass effect | poor gastrointestinal absorption | 
CC1(C)[C@@H](O[C@H]2O[C@H](C(=O)O)[C@@H](O)[C@H](O)[C@H]2O[C@@H]2O[C@H](C(=O)O)[C@@H](O)[C@H](O)[C@H]2O)CC[C@]2(C)[C@H]3C(=O)C=C4[C@@H]5C[C@@](C)(C(=O)O)CC[C@]5(C)CC[C@@]4(C)[C@]3(C)CC[C@@H]12 [glycyrrhizic acid] |  |  | can inhibit animal paw swelling
CC1(C)[C@@H](O)CC[C@]2(C)[C@H]3C(=O)C=C4[C@@H]5C[C@@](C)(C(=O)O)CC[C@]5(C)CC[C@@]4(C)[C@]3(C)CC[C@@H]12 [glycyrrhetinic acid] |  |  | can inhibit animal paw swelling
